Reference: article PMC10252594 (Cancers, 2023)
Values joined by “and” are separate entries in the source; they are usually repeats but may differ in a detail not shown here. Equal values may be shown once.

Test system: LAPC-4 xenografts
Assay: Fatty acid determination (GC-FID) in LAPC-4 xenograft experiment
Type: in vivo, mice
Details: LAPC-4 tumor, 10 mg/kg PO
Experimental: […] The fatty acid profile was next determined by gas chromatography (GC), coupled with a flame ionization detector (FID), using phosphatidylcholine C21:0 (Avanti Polar Lipids) as an internal standard. The GC model 5890 was from Agilent Technologies (Mississauga, ON, Canada). The capillary column used was a HP-88 (100 m × 0.25 mm, […], Agilent Technologies), and the carrier gas was helium at 1.5 mL/min. A total of 56 fatty acids were identified according to their retention time, using fatty acid mixtures as standards.

**Q.** What does the source list for `C#C[C@]1(O)CC[C@H]2[C@@H]3CCc4cc(OC)c(N5CCN(C(=O)[C@@H]6CCCN6C(=O)c6ccc7ccccc7n6)CC5)cc4[C@H]3CC[C@@]21C` [RM-581]?
**A.** Dimethoxyoctadecenoic acid (9c) w9 18:1, FA RM-581 % of total (28 days, Table S1): 0.29%; Elaidic acid (9t) w9 18:1, FA RM-581 (28 days, Table S1): 0 mg/g; Elaidic acid (9t) w9 18:1, FA RM-581 % of total (28 days, Table S1): 0%; Erucic acid w9 22:1, FA RM-581 (28 days, Table S1): 0.025 mg/g; Erucic acid w9 22:1, FA RM-581 % of total (28 days, Table S1): 0.10%; FA (1c) w14 15:1, FA RM-581 (28 days, Table S1): 0 mg/g; FA (1c) w14 15:1, FA RM-581 % of total (28 days, Table S1): 0%; FA (5c) w10 15:1, FA RM-581 (28 days, Table S1): 0 mg/g; FA (5c) w10 15:1, FA RM-581 % of total (28 days, Table S1): 0%; FA (5t) w10 15:1, FA RM-581 (28 days, Table S1): 0 mg/g; FA (5t) w10 15:1, FA RM-581 % of total (28 days, Table S1): 0%; FA (7c) w10 17:1, FA RM-581 (28 days, Table S1): 0.05 mg/g; FA (7c) w10 17:1, FA RM-581 % of total (28 days, Table S1): 0.20%; FA (7t) w10 17:1, FA RM-581 (28 days, Table S1): 0.02 mg/g; FA (7t) w10 17:1, FA RM-581 % of total (28 days, Table S1): 0.09%; FA (8c11c14c17c) w3 20:4, FA RM-581 (28 days, Table S1): 0.04 mg/g; FA (8c11c14c17c) w3 20:4, FA RM-581 % of total (28 days, Table S1): 0.16%; FA (8c) w12 20:1, FA RM-581 (28 days, Table S1): 0 mg/g; FA (8c) w12 20:1, FA RM-581 % of total (28 days, Table S1): 0%; FA (9c12t) w6 18:2, FA RM-581 (28 days, Table S1): 0.02 mg/g; FA (9c12t) w6 18:2, FA RM-581 % of total (28 days, Table S1): 0.09%; FA (9t12c) w6 18:2, FA RM-581 (28 days, Table S1): 0 mg/g; FA (9t12c) w6 18:2, FA RM-581 % of total (28 days, Table S1): 0%; FA (9t12t15t) w3 18:3, FA RM-581 (28 days, Table S1): 0.01 mg/g; FA (9t12t15t) w3 18:3, FA RM-581 % of total (28 days, Table S1): 0.03%; FA (9t) w5 14:1, FA RM-581 (28 days, Table S1): 0.01 mg/g; FA (9t) w5 14:1, FA RM-581 % of total (28 days, Table S1): 0.03%; FA (9t) w13 22:1, FA RM-581 (28 days, Table S1): 0 mg/g; FA (9t) w13 22:1, FA RM-581 % of total (28 days, Table S1): 0%; FA (11c14c17c) w3 20:3, FA RM-581 (28 days, Table S1): 0 mg/g; FA (11c14c17c) w3 20:3, FA RM-581 % of total (28 days, Table S1): 0%; FA (11c14c) w6 20:2, FA RM-581 (28 days, Table S1): 0.08 mg/g; FA (11c14c) w6 20:2, FA RM-581 % of total (28 days, Table S1): 0.34%; FA (12c) w6 18:1, FA RM-581 (28 days, Table S1): 0 mg/g; FA (12c) w6 18:1, FA RM-581 % of total (28 days, Table S1): 0%; FA (13c16c19c) w3 22:3, FA RM-581 (28 days, Table S1): 0 mg/g; FA (13c16c19c) w3 22:3, FA RM-581 % of total (28 days, Table S1): 0%; FA (13c16c) w6 22:2, FA RM-581 (28 days, Table S1): 0.01 mg/g; FA (13c16c) w6 22:2, FA RM-581 % of total (28 days, Table S1): 0.04%; FA (13c) w5 18:1, FA RM-581 (28 days, Table S1): 0.02 mg/g; FA (13c) w5 18:1, FA RM-581 % of total (28 days, Table S1): 0.07%; Gamma-linolenic acid (6c9c12c) w6 18:3, FA RM-581 (28 days, Table S1): 0.05 mg/g; Gamma-linolenic acid (6c9c12c) w6 18:3, FA RM-581 % of total (28 days, Table S1): 0.19%; Gondoic acid (11c) w9 20:1, FA RM-581 (28 days, Table S1): 0.08 mg/g; Gondoic acid (11c) w9 20:1, FA RM-581 % of total (28 days, Table S1): 0.32%; Isobranched 17:0, FA RM-581 (28 days, Table S1): 0.02 mg/g; Isobranched 17:0, FA RM-581 % of total (28 days, Table S1): 0.08%; Lauric acid 12:0, FA RM-581 (28 days, Table S1): 0.02 mg/g; Lauric acid 12:0, FA RM-581 % of total (28 days, Table S1): 0.10%; Linolelaidic acid (9t12t) w6 18:2, FA RM-581 (28 days, Table S1): 0.03 mg/g; Linolelaidic acid (9t12t) w6 18:2, FA RM-581 % of total (28 days, Table S1): 0.14%; Myristoleic acid (9c) w5 14:1, FA RM-581 (28 days, Table S1): 0.02 mg/g; Myristoleic acid (9c) w5 14:1, FA RM-581 % of total (28 days, Table S1): 0.06%; Palmitelaidic acid (9t) w1 16:1, FA RM-581 (28 days, Table S1): 0 mg/g; Palmitelaidic acid (9t) w1 16:1, FA RM-581 % of total (28 days, Table S1): 0%; Pentadecanoic acid 15:0, FA RM-581 (28 days, Table S1): 0.04 mg/g; Pentadecanoic acid 15:0, FA RM-581 % of total (28 days, Table S1): 0.17%; Petroselaidic acid (6t) w12 18:1, FA RM-581 (28 days, Table S1): 0 mg/g; Petroselaidic acid (6t) w12 18:1, FA RM-581 % of total (28 days, Table S1): 0%; Petroselinic acid (7c-n11/6c-n12) w11/12 18:1, FA RM-581 (28 days, Table S1): 0 mg/g; Petroselinic acid (7c-n11/6c-n12) w11/12 18:1, FA RM-581 % of total (28 days, Table S1): 0%; Stearidonic acid (6c9c12c15c) w3 18:4, FA RM-581 (28 days, Table S1): 0 mg/g; Stearidonic acid (6c9c12c15c) w3 18:4, FA RM-581 % of total (28 days, Table S1): 0%; Timnodonic acid (5c8c11c14c17c) w3 20:5, FA RM-581 (28 days, Table S1): 0.025 mg/g; Timnodonic acid (5c8c11c14c17c) w3 20:5, FA RM-581 % of total (28 days, Table S1): 0.10%; Trans-vaccenic acid (11t) w7 18:1, FA RM-581 (28 days, Table S1): 0.03 mg/g; Trans-vaccenic acid (11t) w7 18:1, FA RM-581 % of total (28 days, Table S1): 0.13%; increase in linoleic acid level inside the tumors (10 mg/kg): 1.59 mg/g and ~ 5.7 mM; increase in oleic acid level inside the tumors (10 mg/kg): 1.26 mg/g and ~ 4.5 mM
